The structures appear in SMILES notation. Where only a bound is given, the exact number is not on record here.

The target in the test is hCereblon(M1-L442)_hDDB1(M1-H1140) (Homo sapiens (Human), UniProt Q96SW2). Description: Fluorescence direct binding protocol (tryptophan fluorescence titration). Conditions: 20° C., excited at 280 nm, recorded at 340 nm, assay buffer 50 mM Hepes 7.4 200 mM NaCl; read-out: Fluorescence h-Cereblon_DDB1 Mean Kd_EQ. The method, then:
Fluorescence Direct Binding Protocol
Determination of the affinities of compounds to protein containing one or more tryptophan is measurable by monitoring the fluorescence emission in direct mode. The measurements depending on the protein available amounts are performed either manually in a cuvette on ISS-PC1 photon counting spectrofluorometer or automatically in well plates on a fluorescence plate reader device. Fluorescence titrations are performed at 20° C. in the chosen binding assay buffer by using a defined constant protein concentration against ligand concentration variations. Small aliquots of known ligand concentration solubilized in DMSO were added and the fluorescence, excited at 280 nm, was recorded at 340 nm. The fluorescence intensity was corrected for protein dilution and for the filter effect (Birdsall et al.^72).
1) Optimization of measurement parameters to minimize protein consumption and to minimize the dilution effect and the DMSO content
2) Titration measurements of the protein against ligand by at least 12 titration steps to obtain a good s-curve fit
3) Repeat the same titration measurements with the ligand alone to enable correction
4) Check the stability of the protein once by titration against DMSO alone
5) Determination of the molar extinction coefficients of the ligand at 280 and 340 nm with help of an UV-spectrophotometer
6) Use Excel template for the correction of the measured raw data
7) Use GraphPad Prism software for the quadratic binding fit and the KD evaluation.

hCereblon(M1-L442)_hDDB1(M1-H1140), sequence (Q96SW2 whole entry): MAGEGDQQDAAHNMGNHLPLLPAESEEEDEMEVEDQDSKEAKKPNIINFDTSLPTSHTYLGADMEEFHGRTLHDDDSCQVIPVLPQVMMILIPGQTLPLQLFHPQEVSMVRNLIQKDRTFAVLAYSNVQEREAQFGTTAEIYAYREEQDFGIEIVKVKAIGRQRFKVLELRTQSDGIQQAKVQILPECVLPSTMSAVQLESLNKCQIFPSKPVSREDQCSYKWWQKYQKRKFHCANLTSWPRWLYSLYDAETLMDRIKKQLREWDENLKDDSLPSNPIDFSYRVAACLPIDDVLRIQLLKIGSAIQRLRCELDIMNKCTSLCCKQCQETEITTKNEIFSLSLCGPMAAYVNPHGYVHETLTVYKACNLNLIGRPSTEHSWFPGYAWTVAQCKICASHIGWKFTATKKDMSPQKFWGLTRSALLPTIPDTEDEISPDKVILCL
hCereblon(M1-L442)_hDDB1(M1-H1140), sequence (Q16531 whole entry partner): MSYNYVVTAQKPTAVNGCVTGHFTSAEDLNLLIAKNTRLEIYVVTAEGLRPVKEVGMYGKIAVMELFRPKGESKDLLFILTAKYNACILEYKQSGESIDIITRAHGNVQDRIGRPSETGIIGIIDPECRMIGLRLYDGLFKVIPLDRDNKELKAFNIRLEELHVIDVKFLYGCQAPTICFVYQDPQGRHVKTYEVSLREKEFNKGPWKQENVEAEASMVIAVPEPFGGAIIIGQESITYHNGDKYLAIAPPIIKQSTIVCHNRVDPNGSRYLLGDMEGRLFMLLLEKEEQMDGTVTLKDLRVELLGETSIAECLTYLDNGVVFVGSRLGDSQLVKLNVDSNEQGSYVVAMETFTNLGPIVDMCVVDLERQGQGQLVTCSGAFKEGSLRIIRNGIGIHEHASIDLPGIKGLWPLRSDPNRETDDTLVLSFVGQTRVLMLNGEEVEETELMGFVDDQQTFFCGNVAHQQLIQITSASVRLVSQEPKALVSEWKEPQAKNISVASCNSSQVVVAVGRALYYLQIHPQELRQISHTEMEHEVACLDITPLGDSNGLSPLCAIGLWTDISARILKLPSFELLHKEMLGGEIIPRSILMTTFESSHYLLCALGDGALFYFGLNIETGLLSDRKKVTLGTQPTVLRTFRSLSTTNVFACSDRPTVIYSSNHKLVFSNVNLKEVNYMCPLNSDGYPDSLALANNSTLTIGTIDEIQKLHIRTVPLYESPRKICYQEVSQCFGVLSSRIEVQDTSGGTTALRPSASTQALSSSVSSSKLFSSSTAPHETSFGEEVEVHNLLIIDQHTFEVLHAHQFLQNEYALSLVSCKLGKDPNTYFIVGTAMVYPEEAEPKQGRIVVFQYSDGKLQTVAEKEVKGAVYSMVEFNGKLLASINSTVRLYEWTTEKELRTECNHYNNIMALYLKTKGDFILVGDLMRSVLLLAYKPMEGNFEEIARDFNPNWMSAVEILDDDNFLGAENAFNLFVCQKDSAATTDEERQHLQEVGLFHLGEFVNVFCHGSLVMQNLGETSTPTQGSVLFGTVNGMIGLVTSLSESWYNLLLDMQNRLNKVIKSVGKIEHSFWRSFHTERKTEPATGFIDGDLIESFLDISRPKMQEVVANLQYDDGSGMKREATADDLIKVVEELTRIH

As to `COC(=O)c1ccc2c(C(=O)N[C@H]3CCC(=O)NC3=O)c[nH]c2c1` [Example 42, Methyl (S)-3-((2,6-dioxopiperidin-3-yl)carbamoyl)-1H-indole-6-carboxylate], the Kd was 18 nM.
The same measure for `O=C1CC[C@@H](NC(=O)[C@H]2CCNc3ccccc32)C(=O)N1` [Example 43, (4S)-N-[(3R)-2,6-Dioxopiperidin-3-yl]-1,2,3,4-tetrahydroquinoline-4-carboxamide]: under 1 nM.
On to `O=C1CC[C@@H](NC(=O)[C@@H]2CCNc3ccccc32)C(=O)N1` [Example 44, (4R)-N-[(3R)-2,6-Dioxopiperidin-3-yl]-1,2,3,4-tetrahydroquinoline-4-carboxamide], for which the Kd came out at 12 nM.
With `O=C1CC[C@@H](NC(=O)[C@@H]2CCCc3ccccc32)C(=O)N1` [Example 45, (1R)-N-[(3R)-2,6-Dioxopiperidin-3-yl]-1,2,3,4-tetrahydronaphthalene-1-carboxamide] the figure was 4 nM; with `O=C1CC[C@H](NC(=O)[C@@H]2CCCc3ccccc32)C(=O)N1` [Example 46, (1R)-N-[(3S)-2,6-Dioxopiperidin-3-yl]-1,2,3,4-tetrahydronaphthalene-1-carboxamide], 39 nM.
The same measure for `O=C1CC[C@H](NC(=O)c2cnn3ccccc23)C(=O)N1` [Example 47, (S)-N-(2,6-Dioxopiperidin-3-yl)pyrazolo[1,5-a]pyridine-3-carboxamide]: under 1 nM; for `O=C1CC[C@@H](NC(=O)c2cnn3ccccc23)C(=O)N1` [Example 48, (R)-N-(2,6-Dioxopiperidin-3-yl)pyrazolo[1,5-a]pyridine-3-carboxamide]: under 1 nM; for `O=C1CC[C@@H](NC(=O)c2n[nH]c3ccccc23)C(=O)N1` [Example 49, (R)-N-(2,6-Dioxopiperidin-3-yl)-1H-indazole-3-carboxamide]: under 1 nM.
With `O=C1CC[C@H](NC(=O)c2ncc3ccccn23)C(=O)N1` [Example 50, (S)-N-(2,6-Dioxopiperidin-3-yl)imidazo[1,5-a]pyridine-3-carboxamide] the figure was 4 nM.
`O=C1CC[C@@H](NC(=O)c2ncc3ccccn23)C(=O)N1` [Example 51, (R)-N-(2,6-Dioxopiperidin-3-yl)imidazo[1,5-a]pyridine-3-carboxamide]: the Kd is 3 nM.
The same measure for `O=C1CC[C@H](NC(=O)c2ccc3ccccn23)C(=O)N1` [Example 52, (S)-N-(2,6-Dioxopiperidin-3-yl)indolizine-3-carboxamide]: 6 nM; for `O=C1CC[C@@H](NC(=O)c2ccc3ccccn23)C(=O)N1` [Example 53, (R)-N-(2,6-Dioxopiperidin-3-yl)indolizine-3-carboxamide]: 2 nM; for `O=C1CC[C@H](NC(=O)c2cnc3ccccn23)C(=O)N1` [Example 54, (S)-N-(2,6-Dioxopiperidin-3-yl)imidazo[1,2-a]pyridine-3-carboxamide]: 1 nM.
As for `O=C1CC[C@@H](NC(=O)c2cnc3ccccn23)C(=O)N1` [Example 55, (R)-N-(2,6-Dioxopiperidin-3-yl)imidazo[1,2-a]pyridine-3-carboxamide], the Kd is under 1 nM.
In the case of `O=C1CC[C@H](NC(=O)c2cnn3cccnc23)C(=O)N1` [Example 56, (S)-N-(2,6-Dioxopiperidin-3-yl)pyrazolo[1,5-a]pyrimidine-3-carboxamide], the Kd was 8 nM.
In the case of `O=C1CC[C@@H](NC(=O)c2cnn3cccnc23)C(=O)N1` [Example 57, (R)-N-(2,6-Dioxopiperidin-3-yl)pyrazolo[1,5-a]pyrimidine-3-carboxamide], the Kd amounted to 7 nM.
`CN(C(=O)N1CCc2ccccc21)C1CCC(=O)NC1=O` (centres unmarked) [Example 58, N-(2,6-Dioxopiperidin-3-yl)-N-methylindoline-1-carboxamide]: the Kd stood at 22 nM.
The same measure for `CN(C(=O)N1CCc2ccccc21)[C@H]1CCC(=O)NC1=O` [Example 59, (S)-N-(2,6-Dioxopiperidin-3-yl)-N-methylindoline-1-carboxamide]: 20 nM; for `CN(C(=O)N1CCc2ccccc21)[C@@H]1CCC(=O)NC1=O` [Example 60, (R)-N-(2,6-Dioxopiperidin-3-yl)-N-methylindoline-1-carboxamide]: 30 nM; for `O=C1CC[C@H](NC(=O)Cc2cccnc2)C(=O)N1` [Example 61, (S)-N-(2,6-Dioxopiperidin-3-yl)-2-(pyridin-3-yl)acetamide]: 967 nM.
With `CN(C(=O)N1CCc2cccnc21)C1CCC(=O)NC1=O` (centres unmarked) [Example 62, N-(2,6-Dioxopiperidin-3-yl)-N-methyl-2,3-dihydro-1H-pyrrolo[2,3-b]pyridine-1-carboxamide] the figure was 29 nM; with `O=C1CC[C@@H](NC(=O)Cc2cccnc2)C(=O)N1` [Example 63, (R)-N-(2,6-Dioxopiperidin-3-yl)-2-(pyridin-3-yl)acetamide], 19 nM; with `O=C1CC[C@@H](NC(=O)N2CCCc3cccnc32)C(=O)N1` [Example 64, (R)-N-(2,6-Dioxopiperidin-3-yl)-3,4-dihydro-1,8-naphthyridine-1(2H)-carboxamide], 641 nM.
The same measure for `CC(=O)Nc1ccc(CC(=O)N[C@H]2CCC(=O)NC2=O)cc1` [Example 65, (S)-2-(4-Acetamidophenyl)-N-(2,6-dioxopiperidin-3-yl)acetamide]: 23 nM.
With `CC(=O)Nc1ccc(CC(=O)N[C@@H]2CCC(=O)NC2=O)cc1` [Example 66, (R)-2-(4-Acetamidophenyl)-N-(2,6-dioxopiperidin-3-yl)acetamide], the Kd is 86 nM.
`CC(=O)Nc1cccc(CC(=O)N[C@@H]2CCC(=O)NC2=O)c1` [Example 67, (R)-2-(3-Acetamidophenyl)-N-(2,6-dioxopiperidin-3-yl)acetamide]: the Kd is 3 nM.
The same measure for `CC(=O)Nc1cccc(CC(=O)N[C@H]2CCC(=O)NC2=O)c1` [Example 68, (S)-2-(3-Acetamidophenyl)-N-(2,6-dioxopiperidin-3-yl)acetamide]: 60 nM; for `O=C1CC[C@H](NC(=O)Cc2ccc3c(c2)CC(=O)N3)C(=O)N1` [Example 69, (S)-N-(2,6-Dioxopiperidin-3-yl)-2-(2-oxoindolin-5-yl)acetamide]: 15 nM.
With `O=C1CC[C@@H](NC(=O)Cc2ccc3c(c2)CC(=O)N3)C(=O)N1` [Example 70, (R)-N-(2,6-Dioxopiperidin-3-yl)-2-(2-oxoindolin-5-yl)acetamide] the figure was 3 nM.
Regarding `Cn1nc(C(=O)N[C@H]2CCC(=O)NC2=O)c2c1CCN(C(=O)OC(C)(C)C)C2` [Example 71, tert-Butyl (S)-3-((2,6-dioxopiperidin-3-yl)carbamoyl)-1-methyl-1,4,6,7-tetrahydro-5H-pyrazolo[4,3-c]pyridine-5-carboxylate], the Kd is 4 nM.
For `Cn1nc(C(=O)N[C@H]2CCC(=O)NC2=O)c2c1CCNC2` [Example 72, (S)-N-(2,6-Dioxopiperidin-3-yl)-1-methyl-4,5,6,7-tetrahydro-1H-pyrazolo[4,3-c]pyridine-3-carboxamide], the Kd was 194 nM.
With `CN1C(=O)CCC(NC(=O)[C@H]2CCCc3ccccc32)C1=O` (stereo partly drawn) [Example 73, (1S)-N-(1-Methyl-2,6-dioxopiperidin-3-yl)-1,2,3,4-tetrahydronaphthalene-1-carboxamide] the figure was 28 nM.

(Values after US11802131B2, “Glutarimides for medical treatment” (C4 Therapeutics, Inc., priority 2017, dated 2023).)
